Results reported in patent US7655225B2, “Methods of expanding stem and progenitor cells and expanded cell populations obtained thereby” (Gamida Cell, Ltd., priority 2002, dated 2010).

Key:
CD34+ cells [1] = assay: Self-renewal potential: colony-forming cells (CFU) from CD34+ cultures; assay type: cell-based, human; settings: five-weeks culture; 10 or 20 μM, added first three weeks; FIG. 9
Text: Ex vivo expansion of progenitor cells: Enriched CD34^+ cell fractions were cultures in 24-well Costar Cell Culture Clusters (Corning Inc., Corning, N.Y.) or in Culture Bags (American Fluoroseal Corp.) with alpha minimal essential medium supplemented with 10% fetal bovine serum (FBS, Biological Industries), at about 1-3×10^4 cells/ml medium. The media were further supplemented with the following human recombinant cytokines (all obtained from Perpo Tech, Inc., Rocky Hill, N.J.): Thrombopoietin (TPO), 50 ng/ml; interleukin 6 (IL-6), 50 ng/ml; FLT-3 ligand, 50 ng/ml; and IL-3, 20 ng/ml. The cultures were incubated at 37° C. in an atmosphere of 5% CO2 in air with extra humidity. At weekly intervals cell cultures were semi-depopulated and supplemented with fresh medium containing the cytokines. Following different incubation periods, the cells were harvested, stained with trypan blue and enumerated. The total cell counts, numbers of CD34^+ cells and subsets thereof, and the number of colony-forming cells (CFU) are presented herein as cumulative numbers, with the assumption that the cultures had not been passaged, namely, the numbers of cells per ml were multiplied by the number of passages performed. Self-renewal potential evaluations: The self-renewal potential of stem cells was determined in vitro by long-term colony formation. Cells were washed and seeded in a semi-solid methylcellulose medium supplemented with 2 IU/ml erythropoietin ([…] Int., Switzerland), stem cell factor and IL-3, both at 20 ng/ml (Perpo Tech), and G-CSF and GM-CSF, both at 10 ng/ml (Perpo Tech). The resulting colonies were scored after two weeks of incubation at 37° C. in a humidified atmosphere of 5% CO2 in air. Colonies were classified as blast, mixed, erythroid, myeloid, and megakaryocytic, according to their cellular composition.

CD34+ cells [2] = assay: Ex vivo expansion of purified CD34+ cells in liquid culture: cell enumeration and FACS of subsets; assay type: cell-based, human; settings: three weeks, 5, 10 or 20 μM
Experimental: Sample collection and processing: Samples were obtained from umbilical human cord blood and processed within 12 hours. The blood cells were mixed with 3% Gelatin (Gigma, St. Louis, Mo.) and allowed to sediment for 30 minutes to remove most red blood cells. The leukocyte-rich fraction was harvested, layered on Ficoll-Hypaque (density 1.077 gram/ml; Sigma) and centrifuged at 400 g for 30 minutes at room temperature. The mononuclear cells in the interface layer were then collected, washed three times in phosphate-buffered saline (PBS; Biological Industries), and re-suspended in PBS solution which contains 1% bovine serum albumin (BSA; Sigma). The cells were then incubated at 4° C. for 30 minutes with murine monoclonal anti CD34^+ antibody (0.5 μg/10^6 mononuclear cells) and were thereafter isolated using two cycles of immuno-magnetic separation using the miniMACS CD34^+ Progenitor Cell Isolation Kit (Miltenyi-Biotec, Auburn, Calif.) according to the manufacturer's recommendations. The purity of the CD34^+ cells obtained ranged between 95% and 98%, based on Flow Cytometry evaluation (see below). Ex vivo expansion of progenitor cells: Enriched CD34^+ cell fractions were cultures in 24-well Costar Cell Culture Clusters (Corning Inc., Corning, N.Y.) or in Culture Bags (American Fluoroseal Corp.) with alpha minimal essential medium supplemented with 10% fetal bovine serum (FBS, Biological Industries), at about 1-3×10^4 cells/ml medium. The media were further supplemented with the following human recombinant cytokines (all obtained from Perpo Tech, Inc., Rocky Hill, N.J.): Thrombopoietin (TPO), 50 ng/ml; interleukin 6 (IL-6), 50 ng/ml; FLT-3 ligand, 50 ng/ml; and IL-3, 20 ng/ml. The cultures were incubated at 37° C. in an atmosphere of 5% CO2 in air with extra humidity. At weekly intervals cell cultures were semi-depopulated and supplemented with fresh medium containing the cytokines. Following different incubation periods, the cells were harvested, stained with trypan blue and enumerated. The total cell counts, numbers of CD34^+ cells and subsets thereof, and the number of colony-forming cells (CFU) are presented herein as cumulative numbers, with the assumption that the cultures had not been passaged, namely, the numbers of cells per ml were multiplied by the number of passages performed. Surface antigen analysis: At different time intervals, the cultured cells were harvested, washed with a PBS solution containing 1% BSA and 0.1% sodium azide (Sigma), and stained, at 4° C. for 60 minutes, with FITC-labeled anti CD45 monoclonal antibody and either PE-labeled anti CD34 (HPCA-2) monoclonal or PE-labeled control mouse Ig (all from Immunoquality Products, the Netherlands). The cells were then washed with the same PBS solution and were analyzed by a flow cytometer, as described hereinafter. Flow cytometry analysis: Cells were analyzed and sorted using FACS caliber flow cytometer (Becton-Dickinson, Immunofluorometry systems, Mountain View, Calif.). Cells were passed at a rate of 1,000 cells/second through a 70 μm nozzle, using a saline sheath fluid. A 488 nm argon laser beam at 250 mW served as the light source for excitation. Fluorescence emission of ten thousand cells was measured using a logarithmic amplification and analyzed using CellQuest software. Determination of the density of stem and progenitor subset populations following expansion: Following an incubation period, the CD34^+ cells were re-selected using miniMACS Miltenyi kit. The purity of the positive fraction of selected CD34^+ cells was confirmed by FACS analysis as well as by cell morphology analysis. The density of CD34^+ cells, in proportion (percentage) to total cells, was determined directly via FACS analysis. The densities of CD34^+ subset populations were determined from the purified CD34^+ fraction. Re-selected CD34^+ cells were stained with lineage specific antigens followed by FACS analysis to determine the percentage of the subset populations within the total number of CD34^+ cells. […]

[Cl][Cu][Cl] [copper chloride, reference compound]
colony-forming cells of CD34+ vs untreated or TEPA-Cu treated cultures (CD34+ cells [1]): substantially fewer
number of total cells vs untreated control (CD34+ cells [2]; FIG. 8a): did not differ significantly
stem cells (CD34+) vs untreated or chelate-treated cultures (CD34+ cells [2]; FIG. 8b): fewer
CD34+ CD38− stem/progenitor subset cells vs untreated or chelate-treated cultures (CD34+ cells [2]; FIG. 8c): fewer
CD34+ Lin− stem/progenitor subset cells vs untreated or chelate-treated cultures (CD34+ cells [2]; FIG. 8d): fewer
